Measurements published in PubChem BioAssay (NCI).
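Following 48 hours of exposure in 96-well plates, responses at five concentrations were used to interpolate endpoints linearly. TGI denotes the concentration required for complete inhibition of growth.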

How the values were obtained:
Assay in all cases: NCI anticancer screen, dose series, 48 h
TK-10 renal = test system: TK-10 renal
SK-MEL-28 melanoma = test system: SK-MEL-28 melanoma
HCT-116 colon = test system: HCT-116 colon
NCI-H460 lung = test system: NCI-H460 lung
HT29 colon = test system: HT29 colon
HCT-15 colon = test system: HCT-15 colon
SK-OV-3 ovarian = test system: SK-OV-3 ovarian
ACHN renal = test system: ACHN renal
CCRF-CEM leukemia = test system: CCRF-CEM leukemia
NCI-H226 lung = test system: NCI-H226 lung
SK-MEL-5 melanoma = test system: SK-MEL-5 melanoma
UACC-62 melanoma = test system: UACC-62 melanoma
OVCAR-8 ovarian = test system: OVCAR-8 ovarian
DMS 114 small cell lung = test system: DMS 114 small cell lung
DLD-1 colon = test system: DLD-1 colon
HL-60(TB) leukemia = test system: HL-60(TB) leukemia
RPMI-8226 leukemia = test system: RPMI-8226 leukemia
SF-295 CNS = test system: SF-295 CNS
SNB-19 CNS = test system: SNB-19 CNS
A549 NSCLC = test system: A549 NSCLC
OVCAR-5 ovarian = test system: OVCAR-5 ovarian
OVCAR-3 ovarian = test system: OVCAR-3 ovarian
KM20L2 colon = test system: KM20L2 colon
SN12C renal = test system: SN12C renal
UO-31 renal = test system: UO-31 renal
HOP-92 NSCLC = test system: HOP-92 NSCLC
SR leukemia = test system: SR leukemia
EKVX NSCLC = test system: EKVX NSCLC
SNB-75 CNS = test system: SNB-75 CNS
UACC-257 melanoma = test system: UACC-257 melanoma
HOP-62 NSCLC = test system: HOP-62 NSCLC
U251 CNS = test system: U251 CNS
M19-MEL melanoma = test system: M19-MEL melanoma
CAKI-1 renal = test system: CAKI-1 renal
SW-620 colon = test system: SW-620 colon
HOP-18 NSCLC = test system: HOP-18 NSCLC
MOLT-4 leukemia = test system: MOLT-4 leukemia
NCI-H522 lung = test system: NCI-H522 lung
DMS 273 small cell lung = test system: DMS 273 small cell lung
MALME-3M melanoma = test system: MALME-3M melanoma
LXFL 529 NSCLC = test system: LXFL 529 NSCLC
HCC-2998 colon = test system: HCC-2998 colon
IGROV1 ovarian = test system: IGROV1 ovarian
RXF-631 renal = test system: RXF-631 renal
M14 melanoma = test system: M14 melanoma
SNB-78 CNS = test system: SNB-78 CNS
786-0 renal = test system: 786-0 renal
SF-268 CNS = test system: SF-268 CNS
A498 renal = test system: A498 renal
LOX IMVI melanoma = test system: LOX IMVI melanoma
KM12 colon = test system: KM12 colon
OVCAR-4 ovarian = test system: OVCAR-4 ovarian
SF-539 CNS = test system: SF-539 CNS
COLO 205 colon = test system: COLO 205 colon
RXF 393 renal = test system: RXF 393 renal

Question: What does the source list for COC(=O)C1C=CCC2CCCCC21N1CCCC1 (stereo not given)?
Answer: TGI (TK-10 renal): > 100 µM; TGI (SK-MEL-28 melanoma): > 100 µM; TGI (HCT-116 colon): > 100 µM; TGI (NCI-H460 lung): > 100 µM; TGI (HT29 colon): > 100 µM; TGI (HCT-15 colon): > 100 µM; TGI (SK-OV-3 ovarian): > 100 µM; TGI (ACHN renal): > 100 µM; TGI (CCRF-CEM leukemia): > 100 µM; TGI (NCI-H226 lung): > 100 µM; TGI (SK-MEL-5 melanoma): > 100 µM; TGI (UACC-62 melanoma): > 100 µM; TGI (OVCAR-8 ovarian): > 100 µM; TGI (DMS 114 small cell lung): > 100 µM; TGI (DLD-1 colon): > 100 µM; TGI (HL-60(TB) leukemia): 49.1 µM; TGI (RPMI-8226 leukemia): > 100 µM; TGI (SF-295 CNS): > 100 µM; TGI (SNB-19 CNS): > 100 µM; TGI (A549 NSCLC): > 100 µM; TGI (OVCAR-5 ovarian): > 100 µM; TGI (OVCAR-3 ovarian): > 100 µM; TGI (KM20L2 colon): > 100 µM; TGI (SN12C renal): > 100 µM; TGI (UO-31 renal): > 100 µM; TGI (HOP-92 NSCLC): > 100 µM; TGI (SR leukemia): > 100 µM; TGI (EKVX NSCLC): > 100 µM; TGI (SNB-75 CNS): > 100 µM; TGI (UACC-257 melanoma): > 100 µM; TGI (HOP-62 NSCLC): > 100 µM; TGI (U251 CNS): > 100 µM; TGI (M19-MEL melanoma): > 100 µM; TGI (CAKI-1 renal): > 100 µM; TGI (SW-620 colon): > 100 µM; TGI (HOP-18 NSCLC): > 100 µM; TGI (MOLT-4 leukemia): > 100 µM; TGI (NCI-H522 lung): > 100 µM; TGI (DMS 273 small cell lung): > 100 µM; TGI (MALME-3M melanoma): > 100 µM; TGI (LXFL 529 NSCLC): > 100 µM; TGI (HCC-2998 colon): > 100 µM; TGI (IGROV1 ovarian): > 100 µM; TGI (RXF-631 renal): > 100 µM; TGI (M14 melanoma): > 100 µM; TGI (SNB-78 CNS): > 100 µM; TGI (786-0 renal): > 100 µM; TGI (SF-268 CNS): > 100 µM; TGI (A498 renal): > 100 µM; TGI (LOX IMVI melanoma): > 100 µM; TGI (KM12 colon): > 100 µM; TGI (OVCAR-4 ovarian): > 100 µM; TGI (SF-539 CNS): > 100 µM; TGI (COLO 205 colon): > 100 µM; TGI (RXF 393 renal): > 100 µM
